The source made the active and inactive calls. The calls are words filed in the database; no cut-off is given here.

In one test the test system is HepG2. Description: Hepatoprotective activity against APAP-induced cytotoxicity in human HepG2 cells assessed as cell survival rate at 10 uM incubated for 48 hrs by MTT assay relative to control. Format: functional.
For the molecule `COC(=O)c1cc(OC)c2c(c1-c1c(CO)cc(OC)c3c1OCO3)OCO2` [BICYCLOL], the Activity was 49%.

Take `COC1=C(OC)C(=O)[C@]23COc4c5c(cc(c42)[C@H](OC(=O)/C=C/c2ccccc2)[C@H](C)[C@@](C)(O)CC3=C1)OCO5`: the Activity is 37%.

Consider `COc1c(O)cc2c(c1OC)-c1c(cc(O)c(OC)c1OC)[C@H](OC(=O)c1ccccc1)[C@H](C)[C@H](C)C2`, for which the result was inactive.

On to `COc1c(O[C@@H]2O[C@H](CO)[C@@H](O)[C@H](O)[C@H]2O)cc2c(c1O)-c1c(cc3c(c1OC)OCO3)[C@H](O)[C@H](C)[C@H](C)C2`, for which the result was inactive.

With `COC1=C(OC)C(=O)[C@]23COc4c5c(cc(c42)[C@H](OC(=O)/C=C/c2ccccc2)[C@H](C)[C@](C)(O)CC3=C1)OCO5`, the Activity is listed as 50.8%.

A further test concerns Peritoneal macrophage. Description: Antiinflammatory activity in C57BL/6J mouse peritoneal macrophages assessed as inhibition of LPS-induced nitric oxide production at 10 uM incubated for 24 hrs in presence of LPS by Griess test relative to control. It counts as functional. (In general: Griess reagent forms a coloured azo dye with nitrite.)
Regarding `C/C=C/c1ccc(O[C@H](C)[C@@H](O)c2cc(O)c(OC)c(OC)c2)c(OC)c1`, the inhibition (in general, the percentage by which the read-out fell short of the control) at 10 µM worked out at 89.8%.

In the case of `C/C=C(/C)C(=O)O[C@H]1c2cc(O)c(O[C@@H]3O[C@H](CO)[C@@H](O)[C@H](O)[C@H]3O)c3c2[C@@]2(CO3)C(=O)C(OC)=C(OC)C=C2C[C@@H](C)[C@H]1C`, the inhibition at 10 µM is 55.1%.

Take `COC1=C(OC)C(=O)[C@]23COc4c5c(cc(c42)[C@H](OC(=O)/C=C/c2ccccc2)[C@H](C)[C@](C)(O)CC3=C1)OCO5`: the inhibition at 10 µM amounted to 74.9%.

For the origin of these results see ChEMBL document CHEMBL4414594, “Hepatoprotective Tetrahydrobenzocyclooctabenzofuranone Lignans from Kadsura longipedunculata” (2019).
